Activity calls are given as the source filed them. No cut-off for these calls is given here.
Assays:
RAW264.7 [1] = test: Inhibition of RANKL-induced osteoclast differentiation in mouse RAW264.7 cells assessed as decrease in NFATc1 mRNA level at 20 uM after 24 hrs in presence of ERbeta antagonist PHTPP by qRT-PCR method; assay type: functional, cell-based
[2] = target: T1, Estrogen receptor (Homo sapiens) (UniProt P03372); test: Agonist activity at estrogen receptor (unknown origin) expressed in mouse RAW264.7 cells after 6 hrs by luciferase reporter gene assay; assay type: cell-based
T1 sequence (whole entry): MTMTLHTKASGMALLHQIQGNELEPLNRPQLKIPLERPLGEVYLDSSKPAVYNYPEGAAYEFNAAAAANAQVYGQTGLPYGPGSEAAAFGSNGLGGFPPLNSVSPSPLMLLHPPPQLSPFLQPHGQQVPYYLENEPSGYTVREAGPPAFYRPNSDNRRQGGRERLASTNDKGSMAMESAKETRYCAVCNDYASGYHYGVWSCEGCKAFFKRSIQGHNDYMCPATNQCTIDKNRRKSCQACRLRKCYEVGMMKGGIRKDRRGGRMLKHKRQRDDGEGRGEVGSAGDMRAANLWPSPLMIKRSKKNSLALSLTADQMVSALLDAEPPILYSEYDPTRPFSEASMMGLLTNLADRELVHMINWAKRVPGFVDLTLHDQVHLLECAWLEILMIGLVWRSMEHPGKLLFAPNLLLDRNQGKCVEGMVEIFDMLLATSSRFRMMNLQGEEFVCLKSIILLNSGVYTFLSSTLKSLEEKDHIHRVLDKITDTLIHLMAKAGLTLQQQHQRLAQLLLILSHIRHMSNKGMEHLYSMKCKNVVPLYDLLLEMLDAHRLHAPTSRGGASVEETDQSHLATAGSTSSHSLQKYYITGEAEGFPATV

RAW264.7 [3] = test: Inhibition of RANKL-induced osteoclast differentiation in mouse RAW264.7 cells harboring ERalpha siRNA assessed as decrease in size of TRAP-positive multinucleated cells at 20 uM after 5 days by microscopy; assay type: functional, cell-based
RAW264.7 [4] = test: Inhibition of RANKL-induced osteoclast differentiation in mouse RAW264.7 cells assessed as decrease in c-Fos mRNA level at 20 uM after 24 hrs in presence of ERalpha antagonist MPP by qRT-PCR method; assay type: functional, cell-based
Homo sapiens = species: Homo sapiens; test: Selectivity ratio of IC50 for recombinant human full length untagged ERbeta expressed in insect cells to IC50 for recombinant human full length untagged ERalpha expressed in insect cells
RAW264.7 [5] = test: Inhibition of RANKL-induced osteoclast differentiation in mouse RAW264.7 cells harboring ERbeta siRNA assessed as decrease in NFATc1 mRNA level at 20 uM after 24 hrs by qRT-PCR method; assay type: functional, cell-based
RAW264.7 [6] = test: Inhibition of RANKL-induced osteoclast differentiation in mouse RAW264.7 cells assessed as decrease in TRAP activity at 20 uM after 5 days in presence of ERalpha antagonist MPP by microscopy; assay type: functional, cell-based
RAW264.7 [7] = test: Inhibition of RANKL-induced osteoclast differentiation in mouse RAW264.7 cells harboring ERalpha siRNA assessed as decrease in NFATc1 mRNA level at 20 uM after 24 hrs by qRT-PCR method; assay type: functional, cell-based
RAW264.7 [8] = test: Inhibition of NF-kappaB/p38 MAPK signaling pathway in mouse RAW264.7 cells assessed as reduction in RANKL-induced TRAP mRNA level after 24 hrs by qRT-PCR method; assay type: cell-based
RAW264.7 [9] = test: Inhibition of RANKL-induced osteoclast differentiation in mouse RAW264.7 cells harboring ERbeta siRNA assessed as decrease in TRAP activity at 20 uM after 5 days by microscopy; assay type: functional, cell-based
RAW264.7 [10] = test: Inhibition of RANKL-induced osteoclast differentiation in mouse RAW264.7 cells assessed as decrease in size of TRAP-positive multinucleated cells at 20 uM after 5 days in presence of ERalpha antagonist MPP by microscopy; assay type: functional, cell-based
RAW264.7 [11] = test: Inhibition of RANKL-induced osteoclast differentiation in mouse RAW264.7 cells harboring AMPKalpha1 siRNA assessed as decrease in c-Fos mRNA level at 20 uM after 24 hrs by qRT-PCR method; assay type: functional, cell-based
RAW264.7 [12] = test: Inhibition of NF-kappaB signaling pathway in mouse RAW264.7 cells assessed as reduction in RANKL-induced IkappaB phosphorylation at 10 to 40 uM after 30 mins by Western blot method; assay type: cell-based
RAW264.7 [13] = test: Inhibition of RANKL-induced bone resorption in mouse RAW264.7 cells assessed as reduction in pit formation after 7 days by optical microscopy; assay type: functional, cell-based
RAW264.7 [14] = test: Inhibition of RANKL-induced osteoclast differentiation in mouse RAW264.7 cells assessed as decrease in TRAP mRNA level at 20 uM after 24 hrs in presence of ERbeta antagonist PHTPP by qRT-PCR method; assay type: functional, cell-based
RAW264.7 [15] = test: Cytotoxicity against mouse RANKL-treated RAW264.7 cells assessed as reduction in cell viability at 10 to 40 uM after 72 hrs by MTT assay; assay type: cell-based; settings: raw264.7, 72 h
RAW264.7 [16] = test: Inhibition of RANKL-induced osteoclast differentiation in mouse RAW264.7 cells assessed as decrease in number of TRAP-positive multinucleated cells after 5 days by microscopy; assay type: functional, cell-based
RAW264.7 [17] = test: Inhibition of NF-kappaB/p38 MAPK signaling pathway in mouse RAW264.7 cells assessed as reduction in RANKL-induced DC-STAMP mRNA level after 24 hrs by qRT-PCR method; assay type: cell-based
RAW264.7 [18] = test: Inhibition of RANKL-induced osteoclast differentiation in mouse RAW264.7 cells harboring ERalpha siRNA assessed as decrease in number of TRAP-positive multinucleated cells at 20 uM after 5 days by microscopy; assay type: functional, cell-based
Estrogen receptor = target: T2, Estrogen receptor (Homo sapiens, UniProt P03372); test: Inhibition of fluoromone binding to recombinant human full length untagged ERalpha expressed in insect cells after 2 hrs by fluorescence polarization assay
T2 sequence (P03372 whole entry): T1 sequence (whole entry)

RAW264.7 [19] = test: Inhibition of NF-kappaB signaling pathway in mouse RAW264.7 cells assessed as reduction in RANKL-induced Akt phosphorylation at 10 to 40 uM after 30 mins by Western blot method; assay type: cell-based
RAW264.7 [20] = test: Inhibition of RANKL-induced osteoclast differentiation in mouse RAW264.7 cells assessed as decrease in c-Fos mRNA level at 20 uM after 24 hrs in presence of ERbeta antagonist PHTPP by qRT-PCR method; assay type: functional, cell-based

**Q.** Which inhibition (RAW264.7 [1]) does the source give for `COc1cc(C2Oc3c(OC)cc(/C=C/CO)cc3C2CO)ccc1O` (configuration not stated) here?
**A.** The inhibition was “Active”.

**Q.** And the Activity [2]?
**A.** Its Activity is “Active”.

**Q.** What about the inhibition (RAW264.7 [3]) of the same compound?
**A.** The inhibition was “inactive”.

**Q.** What about the inhibition (RAW264.7 [4]) of the same compound?
**A.** Its inhibition is “inactive”.

**Q.** And the Ratio IC50 (Homo sapiens)?
**A.** Its Ratio IC50 is 4.63.

**Q.** And the inhibition (RAW264.7 [5])?
**A.** The inhibition was “Active”.

**Q.** What about the inhibition (RAW264.7 [6]) of the same compound?
**A.** Its inhibition is “inactive”.

**Q.** What about the inhibition (RAW264.7 [7]) of the same compound?
**A.** The inhibition was “inactive”.

**Q.** What about the inhibition (RAW264.7 [8]) of the same compound?
**A.** Its inhibition is “Dose-dependent effect”.

**Q.** What about the inhibition (RAW264.7 [9]) of the same compound?
**A.** The inhibition was “Active”.

**Q.** And the inhibition (RAW264.7 [10])?
**A.** The inhibition was “inactive”.

**Q.** And the inhibition (RAW264.7 [11])?
**A.** The inhibition was “inactive”.

**Q.** What about the inhibition (RAW264.7 [12]) of the same compound?
**A.** The inhibition was “Active”.

**Q.** What about the inhibition (RAW264.7 [13]) of the same compound?
**A.** The inhibition was “Dose-dependent effect”.

**Q.** And the inhibition (RAW264.7 [14])?
**A.** Its inhibition is “Active”.

**Q.** And the Activity (RAW264.7 [15])?
**A.** Its Activity is “Non-Toxic”.

**Q.** What about the inhibition (RAW264.7 [16]) of the same compound?
**A.** Its inhibition is “Dose-dependent effect”.

**Q.** And the inhibition (RAW264.7 [17])?
**A.** The inhibition was “Dose-dependent effect”.

**Q.** What about the inhibition (RAW264.7 [18]) of the same compound?
**A.** The inhibition was “inactive”.

**Q.** And the IC50 (Estrogen receptor)?
**A.** The IC50 was 61.9 nM.

**Q.** What about the inhibition (RAW264.7 [19]) of the same compound?
**A.** The inhibition was “Active”.

**Q.** And the inhibition (RAW264.7 [20])?
**A.** The inhibition was “Active”.

Source: ChEMBL document CHEMBL4145608, “Dehydrodiconiferyl Alcohol Inhibits Osteoclast Differentiation and Ovariectomy-Induced Bone Loss through Acting as an Estrogen Receptor Agonist” (J Nat Prod, 2018)
